We go through one compound from US20260183420A1, “ACTIVATED NANOTHERAPY FOR SICKLE CELL DISEASE” (UNIVERSITY OF MARYLAND, BALTIMORE, priority 2022, published 2026).

Series [1] deals with T1, Hb (HbS) in human SS RBCs (Homo sapiens, UniProt P69905).
T1 construct: endogenous in cells; host or cells: red blood cells from patients with sickle cell disease (human SS RBCs)
The series is described as follows: 5-HMF-induced Hb modification quantitated by cation exchange HPLC in RBCs from SCD patients. It counts as cell-based. The method, then:
HPLC was performed to detect binding of an allosteric effector to Hb.
(§1) FIG. 19A presents illustrative chromatograms (standards & samples).
(§2) 5-HMF-induced Hb modification was quantitated by HPLC (Waters™ e2695XE Alliance™, Swift WCX-PEEK); O2 dissociation curves (ODC) were measured in intact RBCs (HEMOX Analyzer); pO2's at the point of sickling (POS) and point of unsickling (POU) were determined during controlled Hb O2 unloading/loading, respectively (LORRCA Oxygenscan RR Mechatronics).
See data in FIG. 21A and FIG. 21B (control patients) and FIG. 21C and FIG. 21D (SCD patients).

Series [2] has as its target T2, Hb (HbO2 affinity) in intact SRBCs (Homo sapiens, UniProt P69905).
T2 construct: endogenous in cells; host or cells: red blood cells from patients with sickle cell disease (human SS RBCs)
The series is described as follows: O2 dissociation curve / HbO2 affinity (p50) in intact SRBCs (HEMOX Analyzer). Particulars: pH 7.4, 5 mM 5-HMF, 1 hour, intact SCD RBCs. It counts as cell-based. The method, then:
Hemox analysis methods determine oxygen partial pressure and the degree of hemoglobin saturation with oxygen using a Clark oxygen electrode and spectrophotometry, respectively.
as §1, §2
(§3) After either 1 hour or 3 hours, either or both oxygen dissociation curves (ODC) or laser ektacytometry was performed to measure either or both p50 and POS/POR. […] As for PK data, effect upon p50 and POS/POR appear to progress from 1 hour to 3 hours. […] See also the results in FIG. 23. CNP=carbon nanoparticle.

In series [3] the test system is human SS RBCs. The series is described as follows: Laser ektacytometry during controlled deoxygenation/reoxygenation (LORRCA Oxygenscan): POS, POR, elongation index. It counts as cell-based. Particulars: 1 hour.
Excerpt: The LORRCA red blood cell analysis platform was used to obtain information on deformability (cell and cell membrane stability), including under an osmotic gradient (osmotic resistance). The platform also can provide data on aggregation tendency and kinetics and measure the relative oxygen pressure at the critical point when the red blood cells start to sickle. Here, RBC Osmotic Fragility (elongation index (EI) vs. osmolality at specific sheer), RBC Deformability (EI vs sheer at specific osmolality), and RBC Oxyscan Sickling Characteristics (EI vs pO2) were determined. See, for example, FIG. 5.
See FIG. 6 for a description of how EI is calculated. See FIG. 7 for an example calculation of Oxyscan analysis parameters. […] LORRCA determines POS as the pO2 corresponding to a 5% decrease in EImax. If the EI is not completely stable at high pO2 (i.e., the Oxyscan baseline is not level), POS is calculated to be artificially high. FIG. 9 is a graph showing an example point of sickling (POS) determination from “first derivative,” which is taken from the plot. A common method to process, the first derivative of a spectrum is the rate of change of absorbance with respect to wavelength.
as §1, §2, §3

Series [4] has as its system RBCs from subjects without sickle cell disease. The series is described as follows: RBC lysis, blood from subjects without sickle cell disease. It counts as cell-based, human. Particulars: healthy blood, 1-hour incubation at 37° C. The method, then: Blood samples (RBCs) from subjects without sickle cell disease were tested with compounds to determine whether the compounds have any impact on RBC physiology, including tests for lysis, LORRCA (deformability and osmotic fragility), and HEMOX (ODC (p50) and cooperativity (Hill number)) after a 1-hour incubation at 37° C. See FIG. 33 for results for HPLC analysis of Hb modification; FIG. 34 for results for % RBC lysis for control blood (combined); FIG. 35 for results as shown; FIG. 36 for results for RBC osmotic fragility; and FIG. 37 for p50 and Hill number results for the oxygen dissociation curve (ODC).

The conditions of series [5]: human trials; cited from earlier work.

T1 sequence (P69905 2-142): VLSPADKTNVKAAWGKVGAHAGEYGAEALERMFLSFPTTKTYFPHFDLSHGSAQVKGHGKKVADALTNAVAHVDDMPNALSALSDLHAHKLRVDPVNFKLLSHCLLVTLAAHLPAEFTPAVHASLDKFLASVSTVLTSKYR
T1 sequence (P68871 with tags, fused parts or gaps E7V partner): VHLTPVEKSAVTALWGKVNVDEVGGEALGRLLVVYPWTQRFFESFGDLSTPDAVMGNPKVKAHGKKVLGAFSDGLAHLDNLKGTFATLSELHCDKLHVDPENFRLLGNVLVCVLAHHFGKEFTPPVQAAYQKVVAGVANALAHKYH
T2 sequence (P69905 2-142): as the sequence (P69905 2-142) above
T2 sequence (P68871 with tags, fused parts or gaps E7V partner): as the sequence (P68871 with tags, fused parts or gaps E7V partner) above

As a reminder, the half-life is the time in which the quantity being followed falls by half. As to `O=Cc1ccc(CO)o1` [Nanoparticle 5-HMF, 5-(hydroxymethyl)furfural], the “5-HMF induced Hb modification (maximal)” value in series [1] (SCD RBCs, 20% Hct, 37° C., 1 hour, 5 mM 5-HMF) is “about 75%”. Besides, in series [1] (equimolar for 5-HMF (5 mM), 0.25-24 hours), the “relative efficacy for % 5-HMF adducted Hb (ranking high to low)” value was “(high to low): free CoNP, 5-HMF, LP, CD, LNP”. Moreover, the “ODC p50” value in series [2] is listed as 20.3±1.5 Torr. In series [3] (0 vs 5 mM 5-HMF), this compound had a POR decrease of 45% and a POS decrease of 30%. For the same compound, the “pO2 at point of sickling (POS)” value in series [3] (5 mM 5-HMF, SCD RBCs) is 39.8±11.6 Torr. For the same compound, the “RBC lysis versus PBS control” value in series [4] is “no difference”. Further, in series [5], the bioavailability entry was “low bioavailability” and the half-life is reported as roughly 1 h.
